Measurements: patent publication US8444858B2, “Control of development of biofilms in industrial process water” (A.Y. Laboratories Ltd., priority 2001, dated 2013)

Key:
catalase (Merck) = experiment: Inactivation of catalase, residual H2O2 laboratory test; assay type: biochemical; details: for Residual H2O2 concentration, % of 3.5% g/l: catalase 26 units/ml
Method: Freshly prepared biofilm inhibiting substance was added to the appropriate flasks containing diluted catalase at a pre-defined feed rate. The contents of the containers were mixed for 60 minutes at room temperature prior to addition of H2O2 (to a final H2O2 concentration of 3.5 g/l). After addition of the H2O2, the mixture was allowed to mix for 30 minutes at room temperature, at which point H2O2 residues were measured in each flask in accordance with the Dr. Lange Cuvette Test LCW 058, measured with LASA 20 (based on Jander/Blasius: Lehrbach der Analytischen and Praparative Anorganischen Chemie, as described in the Handbook of Photometrical Operation Analysis (October 1997)).
Sodium hypochlorite was diluted in DI water to a final concentration of 6000 ppm expressed as total chlorine. Ammonium bromide solution (equimolar to 1.1 mole of the diluted sodium hypochlorite solution, 10% excess on a molar basis) and ammonium chloride solution (equimolar to 1.1 mole of the diluted hypochlorite solution, 10% excess on a molar basis) were prepared. The diluted hypochlorite (50 ml) was added dropwise to 50 ml of the appropriate ammonium salt while the pH was constantly measured. The biofilm inhibiting substance concentration in the produced stock solution was immediately measured and the biofilm inhibiting substance at the appropriate feed level was immediately added to the test flasks.

biofilm [1] = experiment: Pilot plant wastewater pipes, difference in Hazen-Williams coefficient treated vs control pipe; details: single 3 h treatment on day 1 at 10 ppm as total chlorine
Method: Treated wastewater was pumped through several pipes of 10 m length and 4 inches inner diameter in a pilot plant. […] Pressure drop through each pipe was monitored on-line, and average HW coefficients were calculated.
The biofilm inhibiting substance in this example was produced as follows, using a small feeding system was built specifically for this trial. […] The concentration of the biofilm inhibiting substance pre-injection solution was ˜3600 ppm and the pH was 9.2-9.6. […]

[2] = De-inking plant field trial, residual H2O2, residual biofilm inhibiting substance and H2O2 consumption
Method: A de-inking system had been using 7-10 kg H2O2 per ton of waste paper.
The reaction pH was Maintained at 9.8-10.0. The Production process was controlled to ensure synchronous metering of the two chemicals, continuous mixing at the predetermined molar ratio and reproducible production of a stable biofilm inhibiting substance stock solution for the duration of the trial and longer. […] After 850 minutes the dosing rate was reduced to 85 g/ton expressed as total Cl2 by feeding the biofilm inhibiting substance semi-continuously. Various parameters were monitored during start-up of the trial: Residual biofilm inhibiting substance was measured (using a Hach pocket colorimeter, total Cl2, based on the DPD method adapted from Standard Methods for Examination of Waste and Waste Water). […] When necessary, samples were diluted with DI water.

biofilm [3] = experiment: Waste water fouling control in a 7 km pipe, Hazen-Williams coefficient; details: NaOCl at a level of up to 50 mg/l (calculated as Cl2)
Method: Treated wastewater was piped from a wastewater treatment plant to a location 7 kilometers away.
(The Hazen-Williams coefficient is used to express water flow through industrial pipes. It is calculated using the formula
[formula] wherein P is the friction pressure drop expressed in pounds per square inch per 1000 feet of pipe length, B is the flow rate in barrels per hour, s is the specific gravity of the liquid, C=a friction factor (the Hazen-Williams coefficient), and d is the internal diameter of the pipe in inches. P and B are measured for a given pipe, s and d are treated as constants, and C is calculated. The results are presented as the Hazen-Williams coefficient.
Waste water (up to 10 m^3/h) was used to appropriately dilute both chemicals. An on-line pH meter controlled the production process and the hypochlorite feeding rate to ensure the production of a stable biofilm inhibiting substance. The biofilm inhibiting substance was injected into the treated waste pipe as it was produced. Concentration of the biofilm inhibiting substance stock solution was 3000-4000 ppm; the pH was maintained at 9.5-10.

[4] = tested on: mixed culture of slime-forming-bacteria which had been isolated from a paper machine; experiment: Formation of biofilm on stainless steel coupons in a model system (viable counts in medium and on coupons); assay type: cell-based
Method: Formation of biofilm on stainless steel coupons in the presence or absence of an oxidizing biocide or a biofilm inhibiting substance was evaluated in the laboratory. The test system consisted of (a) three closed flasks each containing 20 L nutrient-rich medium (diluted three-fold from its recommended use concentration), (b) three closed cells containing stainless steel coupons hanging freely, and (c) three identical circulation pumps, each pump connected via plastic pipes to one of the flasks and to one of the cells. The system was placed in a thermostatic room at 35° C.
An innoculum containing a mixed culture of slime-forming-bacteria which had been isolated from a paper machine was added to each of the flasks. An oxidizer containing a 5 ppm mixture (expressed as total Cl2) of bromochlorodimethylhydantoin (an oxidizing biocide which is a source of HOBr and HOCl) (hereinafter “mixed halogens”) was added to the first flask once a day for the duration of the trial (4 days). […] The third flask served as a control for the two flasks treated with the oxidizing biocide or biofilm inhibiting substances. […] A diluted solution of sodium hypochlorite in deionized (DI) water (˜8000 ppm as total chlorine) was fed with one pump; a diluted solution of ammonium bromide (12500 ppm) was fed with the second pump. The two diluted solutions were synchronously mixed in a short glass pipe to form a pre-injection solution of biofilm inhibiting substance, using a pH meter to control and check the stability of the biofilm inhibiting substance formed. The biofilm inhibiting substance was fed to the test system immediately as it was produced.
On days 2 and 4, each closed cell was opened and 2 coupons were aseptically removed from each cell. At the same time samples of the circulating medium were taken as well. Sampling was conducted after feeding the daily slug dose of biocide.
Each sample of medium was serially 10-fold diluted in sterile saline solution and plated in molten agar. Each coupon was thoroughly rinsed to remove any adhered particles, aseptically scraped, and the material removed by scraping was quantitatively dispersed in saline solution, vortexed, serially 10-fold diluted and plated in molten agar. Viable counts of microorganisms were taken after 48 h of incubation at 35° C. Viable counts of cells in the medium are presented as colony forming units (cfu) per ml; viable counts on the coupon surfaces are presented as cfu/cm^2.

NCl [Chloramine, monochloroamine, reference compound]
oxidation of H2O2 by the substance (catalase (Merck)): do not oxidize H2O2
Residual H2O2 concentration, % of 3.5% g/l (catalase (Merck); BIS 6.7 ppm as total chlorine): 6.8 % of 3.5% g/l
Residual H2O2 concentration, % of 3.5% g/l (catalase (Merck); BIS 58 ppm as total chlorine): 97.1 % of 3.5% g/l
Residual H2O2 concentration, % of 3.5% g/l (catalase (Merck); BIS 128 ppm as total chlorine): 99.4 % of 3.5% g/l
HW Diff. treated pipe - Control (biofilm [1]; day 1): 13.0
HW Diff. treated pipe - Control (biofilm [1]; day 2): 10.8
HW Diff. treated pipe - Control (biofilm [1]; day 3): 10.7
HW Diff. treated pipe - Control (biofilm [1]; day 4): 15.0
HW Diff. treated pipe - Control (biofilm [1]; day 5): 15.2
HW Diff. treated pipe - Control (biofilm [1]; day 6): 15.15
HW Diff. treated pipe - Control (biofilm [1]; day 7): 14.6
HW Diff. treated pipe - Control (biofilm [1]; day 8): 12.9
HW Diff. treated pipe - Control (biofilm [1]; day 9): 13.0
HW Diff. treated pipe - Control (biofilm [1]; day 10): 11.5
HW Diff. treated pipe - Control (biofilm [1]; day 11): 9.5
HW Diff. treated pipe - Control (biofilm [1]; day 12): 8.6
HW Diff. treated pipe - Control (biofilm [1]; day 13): 7.0
HW Diff. treated pipe - Control (biofilm [1]; day 14): 6.2
HW Diff. treated pipe - Control (biofilm [1]; day 15): 4.4
HW Diff. treated pipe - Control (biofilm [1]; day 16): 2.4
HW Diff. treated pipe - Control (biofilm [1]; day 17): 0.8
HW Diff. treated pipe - Control (biofilm [1]; day 18): 0.7

O=CCCCC=O [glutaraldehyde, reference compound]
average H2O2 consumption rate ([2]; parallel de-inking system at the same plant, commercial chemical formulation containing glutaraldehyde): ~4 kg H2O2/ton of waste paper
control of the enzymatic degradation of H2O2 ([2]; previous attempts on the trial de-inking system): did not yield cost-effective results

[Na+].[O-]Cl [NaOCl, reference compound]
improving water conductivity in the pipes (biofilm [3]): ineffective

CC1(C)C(=O)N(Cl)C(=O)N1Br [Mixed Halogens, bromochlorodimethylhydantoin, reference compound]
increase in the viable count of biofilm bacteria compared to day 2 ([4]; coupons after 4 days): 3 fold
reduction in viable count of planktonic microorganisms ([4]; medium sample after four days): ~10 fold
Viable Counts After 2 Days, medium ([4]; planktonic cells in circulating medium, day 2, daily slug dose (Mixed Halogens 5 ppm, Fuzzicide BAC […] expressed as Cl2), 35° C.): 9 × 10^6 cfu/ml
Viable Counts After 4 Days, medium ([4]; planktonic cells in circulating medium, day 4, daily slug dose (Mixed Halogens 5 ppm, Fuzzicide BAC […] expressed as Cl2)): 1 × 10^6 cfu/ml
Viable Counts After 2 Days, coupon surfaces ([4]; stainless steel coupons, day 2, daily slug dose (Mixed Halogens 5 ppm, Fuzzicide BAC […] expressed as Cl2)): 27 cfu/cm^2
Viable Counts After 4 Days, coupon surfaces ([4]; stainless steel coupons, day 4, daily slug dose (Mixed Halogens 5 ppm, Fuzzicide BAC […] expressed as Cl2)): 95 Cfu/cm^2
